Legend:
Type in all cases: cell-based
[1] = tested on: Enterovirus strain 71; test: CPE inhibition in mammalian cell culture, EV71; conditions: for inhibition at 1 µM: EV71, Conc. 1.0 μM; for inhibition at 0.01 µM: EV71, Conc. 0.01 μM
[2] = tested on: Ljungan virus strain 012; test: CPE inhibition in mammalian cell culture, LV012; conditions: Parechovirus B, read-out: % inh.; for inhibition at 10 µM: LV012, Conc. 10 μM
[3] = tested on: Human parechovirus strain 1; test: CPE inhibition in mammalian cell culture, HPeV-1; conditions: Parechovirus A; HPeV-1, Conc. 10.0 μM; read-out: % inh.
[4] = tested on: coxsackie B virus strain 3; test: CPE inhibition in mammalian cell culture, Cox-B3; conditions: read-out: % inh.
[5] = tested on: coxsackie B virus strain 5; test: CPE inhibition in mammalian cell culture, Cox-B5; conditions: read-out: % inh.
[6] = tested on: coxsackie B virus strain 1; test: CPE inhibition in mammalian cell culture, Cox-B1; conditions: read-out: % inh.
[7] = tested on: Ljungan virus strain 145; test: CPE inhibition in mammalian cell culture, LV145; conditions: Parechovirus B; for inhibition at 10 µM: LV145, Conc. 10.0 μM
[8] = tested on: Enterovirus strain 30; test: CPE inhibition in mammalian cell culture, EV30

Compound: COc1ccc(-c2c(C)nn3c(NCc4ccc(S(N)(=O)=O)cc4)cc(C)nc23)cc1OC [Ex. 97, 4-[[[3-(3,4-dimethoxyphenyl)-2,5-dimethyl-pyrazolo[1,5-a]pyrimidin-7-yl]amino]methyl]benzenesulfonamide]
- inhibition at 0.1 µM ([1]; EV71, Conc. 0.1 μM): 94%

Compound: COc1ccc(-c2c(C)nn3c(Nc4ncc(C)s4)cc(C)nc23)cc1OC [Ex. 93, N-[3-(3,4-dimethoxyphenyl)-2,5-dimethyl-pyrazolo[1,5-a]pyrimidin-7-yl]-5-methyl-thiazol-2-amine]
- inhibition at 100 µM ([2]; LV012, Conc. 100 μM): 42%

Compound: COc1ccc(-c2c(C)nn3c(Nc4ccc(Cl)cc4)cc(C)nc23)cc1OC [Ex. 47, N-(4-chlorophenyl)-3-(3,4-dimethoxyphenyl)-2,5-dimethyl-pyrazolo[1,5-a]pyrimidin-7-amine]
- inhibition at 10 µM [3]: 56%

Compound: Cc1ccc(-c2c(C)nn3c(NCc4cccnc4)cc(C)nc23)cc1 [Ex. 34, 2,5-dimethyl-3-(p-tolyl)-N-(3-pyridylmethyl)pyrazolo[1,5-a]pyrimidin-7-amine]
- inhibition at 1 µM [1]: 100%

Compound: COc1ccc(-c2c(C)nn3c(Nc4ccccc4)cc(C)nc23)cc1OC [Ex. 57, 3-(3,4-dimethoxyphenyl)-2,5-dimethyl-N-phenyl-pyrazolo[1,5-a]pyrimidin-7-amine]
- inhibition at 10 µM [3]: 22%

Compound: COc1ccc(-c2c(C)nn3c(NCc4ccc(S(C)(=O)=O)cc4)cc(C)nc23)cc1OC [Ex. 84, 3-(3,4-dimethoxyphenyl)-2,5-dimethyl-N-[(4-methylsulfonylphenyl)methyl]pyrazolo[1,5-a]pyrimidin-7-amine]
- inhibition at 0.1 µM [4]: 84%

Compound: COc1ccc(-c2c(C)nn3c(NC4Cc5ccccc5C4)cc(C)nc23)cc1OC [Ex. 91, 3-(3,4-dimethoxyphenyl)-N-indan-2-yl-2,5-dimethyl-pyrazolo[1,5-a]pyrimidin-7-amine]
- inhibition at 1 µM [5]: 75%

Compound: COc1ccc(-c2c(C)nn3c(NCc4ccc(OC(F)(F)F)cc4)cc(C)nc23)cc1OC [Ex. 76, 3-(3,4-dimethoxyphenyl)-2,5-dimethyl-N-[[4-(trifluoromethoxy)phenyl]methyl]pyrazolo[1,5-a]pyrimidin-7-amine]
- inhibition at 1 µM [4]: 100%

Compound: COc1ccc(-c2c(C)nn3c(NCc4ccccc4)cc(C)nc23)cc1OC [Ex. 40, N-benzyl-3-(3,4-dimethoxyphenyl)-2,5-dimethyl-pyrazolo[1,5-a]pyrimidin-7-amine]
- inhibition at 0.01 µM [1]: 100%

Compound: COc1ccc(-c2c(C)nn3c(NCc4cccc5ccccc45)cc(C)nc23)cc1OC [Ex. 96, 3-(3,4-dimethoxyphenyl)-2,5-dimethyl-N-(1-naphthylmethyl)pyrazolo[1,5-a]pyrimidin-7-amine]
- inhibition at 0.1 µM [6]: 100%

Compound: COc1ccc(-c2c(C)nn3c(Nc4ccncc4)cc(C)nc23)cc1OC [Ex. 74, 3-(3,4-dimethoxyphenyl)-2,5-dimethyl-N-(4-pyridyl)pyrazolo[1,5-a]pyrimidin-7-amine]
- inhibition at 10 µM [2]: 55%

Compound: COc1ccc(-c2c(C)nn3c(NCc4ccc(NC(C)=O)cc4)cc(C)nc23)cc1OC [Ex. 77, N-[4-[[[3-(3,4-dimethoxyphenyl)-2,5-dimethyl-pyrazolo[1,5-a]pyrimidin-7-yl]amino]methyl]phenyl]acetamide]
- inhibition at 0.1 µM [4]: 60%

Compound: COc1ccc(-c2cnn3c(NCc4ccc(F)cc4)cc(C)nc23)cc1OC [Ex. 99, 3-(3,4-dimethoxyphenyl)-N-[(4-fluorophenyl)methyl]-5-methyl-pyrazolo[1,5-a]pyrimidin-7-amine]
- inhibition at 0.1 µM [4]: 100%

Compound: Cc1cc(NC2CCCC2)n2nc(C)c(-c3ccc(F)cc3)c2n1 [Ex. 38, N-cyclopentyl-3-(4-fluorophenyl)-2,5-dimethyl-pyrazolo[1,5-a]pyrimidin-7-amine]
- inhibition at 10 µM [7]: 84%

Compound: Cc1cc(NCc2ccccc2)n2nc(C)c(-c3ccc(F)cc3)c2n1 [Ex. 13, N-benzyl-3-(4-fluorophenyl)-2,5-dimethyl-pyrazolo[1,5-a]pyrimidin-7-amine]
- inhibition at 1 µM [1]: 66%

Compound: COc1ccc(-c2c(C)nn3c(NCCc4cccs4)cc(C)nc23)cc1OC [Ex. 88, 3-(3,4-dimethoxyphenyl)-2,5-dimethyl-N-[2-(2-thienyl)ethyl]pyrazolo[1,5-a]pyrimidin-7-amine]
- inhibition at 1 µM ([8]; EV30, Conc. 1.0 μM, read-out: % inh.): 88%

Compound: COc1cccc(Nc2cc(C)nc3c(-c4ccc(OC)c(OC)c4)c(C)nn23)c1 [Ex. 61, 3-(3,4-dimethoxyphenyl)-N-(3-methoxyphenyl)-2,5-dimethyl-pyrazolo[1,5-a]pyrimidin-7-amine]
- inhibition at 10 µM [7]: 85%

Compound: COc1cc(-c2c(C)nn3c(NCc4ccc(F)cc4)cc(C)nc23)cc(OC)c1OC [Ex. 105, N-[(4-fluorophenyl)methyl]-2,5-dimethyl-3-(3,4,5-trimethoxyphenyl)pyrazolo[1,5-a]pyrimidin-7-amine]
- inhibition at 10 µM ([8]; EV30, Conc. 10 μM, read-out: % inh.): 67%

Compound: Cc1cc(NCc2cccnc2)n2nc(C)c(-c3ccc(F)cc3)c2n1 [Ex. 36, 3-(4-fluorophenyl)-2,5-dimethyl-N-(3-pyridylmethyl)pyrazolo[1,5-a]pyrimidin-7-amine]
- inhibition at 1 µM [5]: 97%

Compound: Cc1cc(NCc2cccnc2)n2nc(C)c(-c3ccc(Cl)cc3)c2n1 [Ex. 45, 3-(4-chlorophenyl)-2,5-dimethyl-N-(3-pyridylmethyl)pyrazolo[1,5-a]pyrimidin-7-amine]
- inhibition at 1 µM [1]: 100%

Compound: COc1ccc(-c2c(C)nn3c(NCCc4ccccn4)cc(C)nc23)cc1OC [Ex. 85, 3-(3,4-dimethoxyphenyl)-2,5-dimethyl-N-[2-(2-pyridyl)ethyl]pyrazolo[1,5-a]pyrimidin-7-amine]
- inhibition at 1 µM [6]: 98%

Compound: COc1ccc(-c2c(C)nn3c(Nc4ccc(C(C)C)cc4)cc(C)nc23)cc1OC [Ex. 60, 3-(3,4-dimethoxyphenyl)-N-(4-isopropylphenyl)-2,5-dimethyl-pyrazolo[1,5-a]pyrimidin-7-amine]
- inhibition at 1 µM [1]: 69%

Compound: COc1ccc(-c2c(C)nn3c(NCc4cc[n+]([O-])cc4)cc(C)nc23)cc1OC [Ex. 83, 3-(3,4-dimethoxyphenyl)-2,5-dimethyl-N-[(1-oxidopyridin-1-ium-4-yl)methyl]pyrazolo[1,5-a]pyrimidin-7-amine]
- inhibition at 0.01 µM [1]: 82%

Compound: COc1ccc(-c2c(C)nn3c(NCCc4ccccn4)cc(C)nc23)cc1 [Ex. 68, 3-(4-methoxyphenyl)-2,5-dimethyl-N-[2-(2-pyridyl)ethyl]pyrazolo[1,5-a]pyrimidin-7-amine]
- inhibition at 10 µM [7]: 86%

Compound: COc1ccc(-c2c(C)nn3c(NCc4ccc(N(C)C)cc4)cc(C)nc23)cc1OC [Ex. 78, 3-(3,4-dimethoxyphenyl)-N-[(4-dimethylaminophenyl)methyl]-2,5-dimethyl-pyrazolo[1,5-a]pyrimidin-7-amine]
- inhibition at 0.1 µM [6]: 94%

Compound: COc1ccc(-c2c(C)nn3c(NCc4ccccn4)cc(C)nc23)cc1OC [Ex. 35, 3-(3,4-dimethoxyphenyl)-2,5-dimethyl-N-(2-pyridylmethyl)pyrazolo[1,5-a]pyrimidin-7-amine]
- inhibition at 0.1 µM ([8]; EV30, Conc. 0.1 μM): 88%

Compound: Cc1cc(NC(C)c2ccccc2)n2nc(C)c(-c3ccc(F)cc3)c2n1 (stereo not drawn) [Ex. 17, 3-(4-fluorophenyl)-2,5-dimethyl-N-(1-phenylethyl)pyrazolo[1,5-a]pyrimidin-7-amine]
- inhibition at 10 µM [7]: 75%

Compound: COc1ccc(-c2c(C)nn3c(NCc4ccc(C(C)(C)C)cc4)cc(C)nc23)cc1OC [Ex. 86, N-[(4-tert-butylphenyl)methyl]-3-(3,4-dimethoxyphenyl)-2,5-dimethyl-pyrazolo[1,5-a]pyrimidin-7-amine]
- inhibition at 10 µM [2]: 48%

Compound: COc1ccc(CCNc2cc(C)nc3c(-c4ccc(F)cc4)cnn23)cc1OC [Ex. 19, N-[2-(3,4-dimethoxyphenyl)ethyl]-3-(4-fluorophenyl)-5-methyl-pyrazolo[1,5-a]pyrimidin-7-amine]
- inhibition at 10 µM [7]: 34%

Compound: COc1ccc(-c2c(C)nn3c(Nc4cc(C)cc(C)c4)cc(C)nc23)cc1OC [Ex. 56, 3-(3,4-dimethoxyphenyl)-N-(3,5-dimethylphenyl)-2,5-dimethyl-pyrazolo[1,5-a]pyrimidin-7-amine]
- inhibition at 1 µM ([7]; LV145, Conc. 1.0 μM): 61%

Compound: COc1ccc(-c2c(C)nn3c(Nc4cccc(Cl)c4)cc(C)nc23)cc1OC [Ex. 51, N-(3-chlorophenyl)-3-(3,4-dimethoxyphenyl)-2,5-dimethyl-pyrazolo[1,5-a]pyrimidin-7-amine]
- inhibition at 10 µM [7]: 94%

Compound: Cc1cc(NCc2ccc(F)cc2)n2nc(C)c(-c3ccc(F)c(F)c3)c2n1 [Ex. 106, 3-(3,4-difluorophenyl)-N-[(4-fluorophenyl)methyl]-2,5-dimethyl-pyrazolo[1,5-a]pyrimidin-7-amine]
- inhibition at 10 µM [7]: 100%

Compound: Cc1cc(NCc2ccc(F)cc2)n2nc(C)c(-c3ccc4c(c3)OCO4)c2n1 [Ex. 102, 3-(1,3-benzodioxol-5-yl)-N-[(4-fluorophenyl)methyl]-2,5-dimethyl-pyrazolo[1,5-a]pyrimidin-7-amine]
- inhibition at 1 µM [4]: 100%

Compound: Cc1ccc(CNc2cc(C)nc3c(-c4ccc(O)c(O)c4)c(C)nn23)cc1 [Ex. 110, 4-[2,5-dimethyl-7-(p-tolylmethylamino)pyrazolo[1,5-a]pyrimidin-3-yl]benzene-1,2-diol]
- inhibition at 1 µM [5]: 72%

Compound: COc1ccc(-c2c(C)nn3c(NCc4ccc(C)cc4)cc(C)nc23)cc1F [Ex. 108, 3-(3-fluoro-4-methoxy-phenyl)-2,5-dimethyl-N-(p-tolylmethyl)pyrazolo[1,5-a]pyrimidin-7-amine]
- inhibition at 1 µM [6]: 100%

Compound: COc1ccc(-c2c(C)nn3c(Nc4ccc(Br)cc4)cc(C)nc23)cc1OC [Ex. 46, N-(4-bromophenyl)-3-(3,4-dimethoxyphenyl)-2,5-dimethyl-pyrazolo[1,5-a]pyrimidin-7-amine]
- inhibition at 10 µM [7]: 92%

From patent US9963455B2, “Pyrazolo[1,5-a]pyrimidines as antiviral compounds” (Curovir AB, priority 2014, dated 2018)
